Legend:
Format in all cases: in vivo
Kochia (Kochia scoparia) [1] = test: Test A preemergence; conditions: Bassia scoparia, pre-emergence, 240 h, 0 to 100 scale where 0 is no effect and 100 is complete control, read-out: Kochia plant response rating
How it was run: (§1)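 Visual injury, scored on a 0–100 scale relative to untreated controls, was recorded about 10 d after application. Treatments were a preemergence soil spray over planted seeds or a postemergence spray on plants at the one- to two-leaf stage, 2 to 10 cm tall, all in loam soil–sand blend in the greenhouse.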

[2] = tested on: barnyardgrass (Echinochloa crus-galli); test: Test A preemergence; conditions: Echinochloa crus-galli, pre-emergence, 240 h, 0 to 100 scale where 0 is no effect and 100 is complete control, read-out: Barnyardgrass plant response rating
How it was run: as §1

[3] = tested on: giant foxtail (Setaria faberii); test: Test A preemergence; conditions: Setaria faberi, pre-emergence, 240 h, 0 to 100 scale where 0 is no effect and 100 is complete control, read-out: Foxtail, Giant plant response rating
How it was run: as §1

[4] = tested on: pigweed (Amaranthus retroflexus); test: Test A preemergence; conditions: Amaranthus retroflexus, pre-emergence, 240 h, 0 to 100 scale where 0 is no effect and 100 is complete control, read-out: Pigweed plant response rating
[5] = tested on: ragweed (common ragweed, Ambrosia elatior); test: Test A preemergence; conditions: Ambrosia artemisiifolia, pre-emergence, 240 h, 0 to 100 scale where 0 is no effect and 100 is complete control, read-out: Ragweed plant response rating
How it was run: as §1

[6] = tested on: ryegrass, Italian (Italian ryegrass, Lolium multiflorum); test: Test A preemergence; conditions: Lolium multiflorum, pre-emergence, 240 h, 0 to 100 scale where 0 is no effect and 100 is complete control, read-out: Ryegrass, Italian plant response rating
How it was run: as §1

[7] = tested on: Galium (catchweed bedstraw, Galium aparine); test: Test A postemergence; conditions: Galium, post-emergence, 240 h, Postemergence, read-out: Galium plant response rating (0 to 100 scale)
How it was run: as §1

Kochia (Kochia scoparia) [8] = test: Test A postemergence; conditions: Bassia scoparia, post-emergence, 240 h, Postemergence, read-out: Kochia plant response rating (0 to 100 scale)
How it was run: as §1

[9] = tested on: barnyardgrass (Echinochloa crus-galli); test: Test A postemergence; conditions: Echinochloa crus-galli, post-emergence, 240 h, Postemergence
How it was run: as §1

[10] = tested on: blackgrass (Alopecurus myosuroides); test: Test A postemergence; conditions: Alopecurus myosuroides, post-emergence, 240 h, Postemergence, read-out: Blackgrass plant response rating (0 to 100 scale)
How it was run: as §1

corn (Zea mays) = test: Test A postemergence; conditions: Zea mays, post-emergence, 240 h, Postemergence, read-out: Corn plant response rating (0 to 100 scale)
How it was run: as §1

[11] = tested on: giant foxtail (Setaria faberii); test: Test A postemergence; conditions: Setaria faberi, post-emergence, 240 h, Postemergence, read-out: Foxtail, Giant plant response rating (0 to 100 scale)
How it was run: as §1

[12] = tested on: pigweed (Amaranthus retroflexus); test: Test A postemergence; conditions: Amaranthus retroflexus, post-emergence, 240 h, Postemergence, read-out: Pigweed plant response rating (0 to 100 scale)
How it was run: as §1

[13] = tested on: ragweed (common ragweed, Ambrosia elatior); test: Test A postemergence; conditions: Ambrosia artemisiifolia, post-emergence, 240 h, Postemergence, read-out: Ragweed plant response rating (0 to 100 scale)
How it was run: as §1

[14] = tested on: ryegrass, Italian (Italian ryegrass, Lolium multiflorum); test: Test A postemergence; conditions: Lolium multiflorum, post-emergence, 240 h, Postemergence, read-out: Ryegrass, Italian plant response rating (0 to 100 scale)
How it was run: as §1

[15] = tested on: wheat (Triticum aestivum); test: Test A postemergence; conditions: Triticum aestivum, post-emergence, 240 h, Postemergence, read-out: Wheat plant response rating (0 to 100 scale)
How it was run: as §1

[16] = tested on: barnyardgrass (Echinochloa crus-galli); test: Test B flooded paddy test; conditions: Echinochloa crus-galli, 250 g ai/ha, Flood; 0 to 100 scale where 0 is no effect and 100 is complete control; read-out: Barnyardgrass plant response rating
How it was run: (§2)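 Percent control, visually estimated after 13–15 d in the greenhouse on a 0–100 basis, compares treated pots with untreated ones; compound was put into paddy water 3 cm above the soil when plants had two leaves.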

[17] = tested on: ducksalad (Heteranthera limosa); test: Test B flooded paddy test; conditions: Heteranthera limosa, 250 g ai/ha, Flood; 0 to 100 scale where 0 is no effect and 100 is complete control; read-out: Ducksalad plant response rating
How it was run: as §2

rice (Oryra sativa) = test: Test B flooded paddy test; conditions: Oryza sativa, 250 g ai/ha, Flood; 0 to 100 scale where 0 is no effect and 100 is complete control; read-out: Rice plant response rating
How it was run: as §2

[18] = tested on: sedge, umbrella (small-flower umbrella sedge, Cyperus difformis); test: Test B flooded paddy test; conditions: Cyperus difformis, 250 g ai/ha, Flood; 0 to 100 scale where 0 is no effect and 100 is complete control; read-out: Sedge, Umbrella plant response rating
How it was run: as §2

[19] = 125 g ai/ha, preemergence, visual injury rating, approximately 10 d
[20] = 125 g ai/ha, visual rating about 10 d after treatment
[21] = 31 g ai/ha, 0 is no effect, 100 is complete control

CN1C[C@H](c2ccc(C(F)(F)F)cc2)[C@@H](C(=O)Nc2ccccc2-n2cncn2)C1=O [Compound 1288]
0%: pest or weed control at 31 g/ha (Kochia (Kochia scoparia) [1]; 31 g ai/ha, Preemergence) | pest or weed control at 125 g/ha (Kochia (Kochia scoparia) [1]; [19]) | pest or weed control at 31 g/ha ([2]; 31 g ai/ha, Preemergence) | pest or weed control at 125 g/ha [2, 19] | pest or weed control at 31 g/ha ([3]; 31 g ai/ha, Preemergence) | pest or weed control at 125 g/ha [3, 19] | pest or weed control at 31 g/ha ([4]; 31 g ai/ha, Preemergence) | pest or weed control at 125 g/ha [4, 19] | pest or weed control at 31 g/ha ([5]; 31 g ai/ha, Preemergence) | pest or weed control at 125 g/ha [5, 19] | pest or weed control at 31 g/ha ([6]; 31 g ai/ha, Preemergence) | pest or weed control at 125 g/ha [6, 19] | pest or weed control at 125 g/ha [7, 20] | pest or weed control at 31 g/ha [7, 21] | pest or weed control at 125 g/ha (Kochia (Kochia scoparia) [8]; [20]) | pest or weed control at 31 g/ha (Kochia (Kochia scoparia) [8]; [21]) | pest or weed control at 125 g/ha ([9]; 125 g ai/ha, visual rating about 10 d after treatment, read-out: Barnyardgrass plant response rating (0 to 100 scale, 0 no effect, 100 complete control)) | pest or weed control at 31 g/ha ([9]; 31 g ai/ha, 0 is no effect, 100 is complete control, read-out: Barnyardgrass plant response rating (0 to 100 scale)) | pest or weed control at 125 g/ha [10, 20] | pest or weed control at 31 g/ha [10, 21] | plant injury at 125 g/ha (corn (Zea mays); [20]) | plant injury at 31 g/ha (corn (Zea mays); [21]) | pest or weed control at 125 g/ha [11, 20] | pest or weed control at 31 g/ha [11, 21] | pest or weed control at 125 g/ha [12, 20] | pest or weed control at 31 g/ha [12, 21] | pest or weed control at 125 g/ha [13, 20] | pest or weed control at 31 g/ha [13, 21] | pest or weed control at 125 g/ha [14, 20] | pest or weed control at 31 g/ha [14, 21] | plant injury at 125 g/ha [15, 20] | plant injury at 31 g/ha [15, 21] | pest or weed control at 250 g/ha [16] | pest or weed control at 250 g/ha [17] | pest or weed control at 250 g/ha (rice (Oryra sativa)) | pest or weed control at 250 g/ha [18]
